This note sets out measurements from patent US11780826B2 (Amgen Inc., priority 2017, dated 2023).

For this assay, the system named is Bovine cardiac myofibrils. The assay can be described thus: In vitro model of dose-dependent myofibril ATPase modulation (AC1.4, pyruvate kinase/lactate dehydrogenase-coupled ATPase assay at pCa25). Format: biochemical. Particulars: concentration at which ATPase activity was 1.4-fold higher than the bottom of the dose curve, mean of a minimum of two independent tests. In short, it runs like this: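 Absorbance at 340 nm tracked ATP hydrolysis through pyruvate kinase/lactate dehydrogenase coupling (0.5 mM NADH, 1.5 mM PEP). Myofibrils from detergent-homogenized bovine heart, 1 mM ATP, pH 6.80, EGTA/CaCl2 buffering. Dose-response curves fitted with a four-parameter Hill equation.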

For `CS(=O)(=O)c1cncc(C(=O)N2CCC(C(F)(F)F)C2C(=O)N[C@@H](c2cc(F)c(C(F)(F)F)cc2F)C2CC2)c1` (stereo partly drawn) [Example 241, N-((R)-cyclopropyl(2,5-difluoro-4-(trifluoromethyl)phenyl)methyl)-1-(5-(methylsulfonyl)nicotinoyl)-3-(trifluoromethyl)pyrrolidine-2-carboxamide], the AC1.4 is 0.5692 µM.
Take `COc1cccc2c1CCC2NC(=O)[C@H]1CCCN1C(=O)[C@H]1CCCN(S(=O)(=O)N2CC(C#N)C2)C1` (stereo partly drawn) [Example 242, (2R)-1-((S)-1-((3-cyanoazetidin-1-yl)sulfonyl)piperidine-3-carbonyl)-N-(4-methoxy-2,3-dihydro-1H-inden-1-yl)pyrrolidine-2-carboxamide]: the AC1.4 is 0.573 µM.
In turn, `Cc1ccc(CNC(=O)[C@H]2CCCN2C(=O)[C@H]2CCCN(S(=O)(=O)N3CC(C#N)C3)C2)cc1` [Example 243, 1-(((3S)-1-((3-cyano-1-azetidinyl)sulfonyl)-3-piperidinyl)carbonyl)-N-(4-methylbenzyl)-D-prolinamide] returned an AC1.4 of 0.5746 µM.
Take `CS(=O)(=O)c1cccc(C(=O)N2[C@@H](C(=O)NC(c3ccc(C(F)(F)F)cc3F)C3CNC(=O)C3)C[C@H]3C[C@H]32)c1` (stereo partly drawn) [Example 244, (1R,3R,5R)-N-((2-fluoro-4-(trifluoromethyl)phenyl)(5-oxopyrrolidin-3-yl)methyl)-2-(3-(methylsulfonyl)benzoyl)-2-azabicyclo[3.1.0]hexane-3-carboxamide]: the AC1.4 was 0.5793 µM.
In the case of `CC[C@@H](NC(=O)[C@H]1CCCN1C(=O)[C@H]1CCCN(S(=O)(=O)N2CC(C#N)C2)C1)c1cc(F)cc(F)c1` [Example 245, 1-(((3S)-1-((3-cyano-1-azetidinyl)sulfonyl)-3-piperidinyl)carbonyl)-N-((1R)-1-(3,5-difluorophenyl)propyl)-D-prolinamide], the AC1.4 was found to be 0.582 µM.
Consider `CCS(=O)(=O)c1cccc(C(=O)N2[C@@H](C(=O)N[C@@H](c3ccc(C(F)(F)F)cc3F)C3CC3)C[C@H]3C[C@H]32)c1` [Example 246, (1R,3R,5R)-N-((R)-cyclopropyl(2-fluoro-4-(trifluoromethyl)phenyl)methyl)-2-(3-(ethylsulfonyl)benzoyl)-2-azabicyclo[3.1.0]hexane-3-carboxamide], for which the AC1.4 is 0.582 µM.
Regarding `O=C(N[C@@H](c1ccc(C(F)(F)F)cc1F)C1CC1)[C@H]1CCCN1C(=O)c1cccc(C2(F)CN(S(=O)(=O)C3CC3)C2)c1` [Example 247, N-((R)-cyclopropyl(2-fluoro-4-(trifluoromethyl)phenyl)methyl)-1-(3-(1-(cyclopropylsulfonyl)-3-fluoro-3-azetidinyl)benzoyl)-D-prolinamide], the AC1.4 was determined as 0.5868 µM.
The compound `C[C@@H](NC(=O)[C@H]1CCCN1C(=O)[C@H]1CCCN(S(=O)(=O)N2CC(C#N)C2)C1)c1ccc(C(F)F)cc1` [Example 248, 1-(((3S)-1-((3-cyano-1-azetidinyl)sulfonyl)-3-piperidinyl)carbonyl)-N-((1R)-1-(4-(difluoromethyl)phenyl)ethyl)-D-prolinamide] gave an AC1.4 of 0.5915 µM.
The result for `O=C(N[C@@H](c1ccc(C(F)(F)F)cc1F)C1CC1)[C@H]1C[C@H]2C[C@H]2N1C(=O)c1cccc(S(=O)(=O)CCO)c1` [Example 249, (1R,3R,5R)-N-((R)-cyclopropyl(2-fluoro-4-(trifluoromethyl)phenyl)methyl)-2-(3-((2-hydroxyethyl)sulfonyl)benzoyl)-2-azabicyclo[3.1.0]hexane-3-carboxamide] reads 0.5932 µM; that for `N#Cc1ccc(CNC(=O)[C@H]2CCCN2C(=O)c2cccc(S(=O)(=O)N3CC(C#N)C3)c2)cc1` [Example 250, 1-((3-((3-cyano-1-azetidinyl)sulfonyl)phenyl)carbonyl)-N-(4-cyanobenzyl)-D-prolinamide], 0.5978 µM; that for `N#CC1CN(S(=O)(=O)c2cccc(C(=O)N3C[C@@H](O)C[C@@H]3C(=O)NCc3ccc(C(F)(F)F)cc3)c2)C1` [Example 251, (4S)-1-((3-((3-cyano-1-azetidinyl)sulfonyl)phenyl)carbonyl)-4-hydroxy-N-(4-(trifluoromethyl)benzyl)-D-prolinamide], 0.6055 µM.
For `O=C(N[C@@H](c1ccc(C(F)(F)F)cc1F)C1CC1)[C@H]1CCCN1C(=O)c1cccc(C(F)(F)F)c1` [Example 252, N-((R)-cyclopropyl(2-fluoro-4-(trifluoromethyl)phenyl)methyl)-1-(3-(trifluoromethyl)benzoyl)-D-prolinamide], the AC1.4 was 0.6066 µM.
Compound `CS(=O)(=O)c1cccc(C(=O)N2CCCC[C@@H]2C(=O)N[C@@H](c2ccc(C(F)(F)F)cc2F)C2CC2)c1` [Example 253, (2R)-N-((R)-cyclopropyl(2-fluoro-4-(trifluoromethyl)phenyl)methyl)-1-(3-(methylsulfonyl)benzoyl)-2-piperidinecarboxamide] registered an AC1.4 of 0.6092 µM.
`C[C@@H](NC(=O)[C@H]1CCCN1C(=O)[C@@H]1CN(S(=O)(=O)N2CC(C#N)C2)CCN1)c1ccc(Cl)cc1F` [Example 254, N-((1R)-1-(4-chloro-2-fluorophenyl)ethyl)-1-(((2S)-4-((3-cyano-1-azetidinyl)sulfonyl)-2-piperazinyl)carbonyl)-D-prolinamide]: the AC1.4 worked out at 0.6139 µM.
For the compound `CS(=O)(=O)c1cccc(C(=O)N2CCC[C@@H]2C(=O)N[C@@H](c2ccc(Cl)c(F)c2)C2COC2)c1` [Example 255, N-((R)-(4-chloro-3-fluorophenyl)(3-oxetanyl)methyl)-1-(3-(methylsulfonyl)benzoyl)-D-prolinamide], the AC1.4 is 0.6167 µM.
`Cc1ccc(CNC(=O)[C@H]2CCCN2C(=O)[C@H]2CCCN(S(=O)(=O)N3CC(C#N)C3)C2)c(C)c1` [Example 256, 1-(((3S)-1-((3-cyano-1-azetidinyl)sulfonyl)-3-piperidinyl)carbonyl)-N-(2,4-dimethylbenzyl)-D-prolinamide]: the AC1.4 is 0.632 µM.
The result for `N#CC1CN(S(=O)(=O)N2CCN[C@H](C(=O)N3CCC[C@@H]3C(=O)NCc3ccc(Cl)c(Cl)c3)C2)C1` [Example 257, 1-(((2S)-4-((3-cyano-1-azetidinyl)sulfonyl)-2-piperazinyl)carbonyl)-N-(3,4-dichlorobenzyl)-D-prolinamide] reads 0.6321 µM; that for `COC1CN(S(=O)(=O)c2cccc(C(=O)N3CCC[C@@H]3C(=O)NCc3ccc(C(F)(F)F)cc3)c2)C1` [Example 258, 1-((3-((3-methoxy-1-azetidinyl)sulfonyl)phenyl)carbonyl)-N-(4-(trifluoromethyl)benzyl)-D-prolinamide], 0.6326 µM; that for `CC[C@@H](NC(=O)[C@H]1CCCN1C(=O)c1cccc(S(=O)(=O)N(C)C)c1)c1ccc(Cl)c(F)c1` [Example 259, N-((1R)-1-(4-chloro-3-fluorophenyl)propyl)-1-(3-(dimethylsulfamoyl)benzoyl)-D-prolinamide], 0.6372 µM.
Compound `N#CC1CN(S(=O)(=O)c2cccc(C(=O)N3CCC[C@@H]3C(=O)NCc3ccc(Cl)nc3)c2)C1` [Example 260, N-((6-chloro-3-pyridinyl)methyl)-1-((3-((3-cyano-1-azetidinyl)sulfonyl)phenyl)carbonyl)-D-prolinamide] had an AC1.4 of 0.639 µM.
For the compound `CS(=O)(=O)c1ccc(C(=O)N2C[C@@H](F)C[C@@H]2C(=O)N[C@@H](c2cc(F)c(Cl)cc2F)C2CC2)cn1` [Example 262, (4S)-N-((R)-(4-chloro-2,5-difluorophenyl)(cyclopropyl)methyl)-4-fluoro-1-((6-(methylsulfonyl)-3-pyridinyl)carbonyl)-D-prolinamide], the AC1.4 amounted to 0.6468 µM.
As for `CC(C)(C(N)=O)c1cccc(C(=O)N2[C@@H](C(=O)N[C@@H](c3cc(F)c(Cl)cc3F)C3COC3)C[C@H]3C[C@H]32)c1` [Example 263, (1R,3R,5R)-2-(3-(1-amino-2-methyl-1-oxo-2-propanyl)benzoyl)-N-((R)-(4-chloro-2,5-difluorophenyl)(3-oxetanyl)methyl)-2-azabicyclo[3.1.0]hexane-3-carboxamide], the AC1.4 was 0.6526 µM.
`CS(=O)(=O)c1cccc(C(=O)N2[C@@H](C(=O)N[C@@H](c3ccc(Cl)c(F)c3)C3COC3)C[C@H]3C[C@H]32)c1` [Example 264, (1R,3R,5R)-N-((R)-(4-chloro-3-fluorophenyl)(3-oxetanyl)methyl)-2-(3-(methylsulfonyl)benzoyl)-2-azabicyclo[3.1.0]hexane-3-carboxamide] had an AC1.4 of 0.6615 µM.
For `O=C(N[C@@H](c1cc(F)c(Cl)cc1F)C1CC1)[C@H]1C[C@H]2C[C@H]2N1C(=O)c1cc(C(F)(F)F)ccn1` [Example 266, (1R,3R,5R)-N-((R)-(4-chloro-2,5-difluorophenyl)(cyclopropyl)methyl)-2-((4-(trifluoromethyl)-2-pyridinyl)carbonyl)-2-azabicyclo[3.1.0]hexane-3-carboxamide], the AC1.4 turned out to be 0.6674 µM.
`N#CC1CN(S(=O)(=O)N2CCC[C@H](C(=O)N3CCC[C@@H]3C(=O)NC(c3ccccc3)c3ccc(Cl)cc3)C2)C1` (stereo partly drawn) [Example 268, (2R)-N-((4-chlorophenyl)(phenyl)methyl)-1-((S)-1-((3-cyanoazetidin-1-yl)sulfonyl)piperidine-3-carbonyl)pyrrolidine-2-carboxamide] yielded an AC1.4 of 0.6764 µM.
In turn, `CS(=O)(=O)c1ccnc(C(=O)N2C[C@@H](F)C[C@@H]2C(=O)N[C@@H](c2cc(F)c(Cl)cc2F)C2CC2)c1` [Example 269, (4S)-N-((R)-(4-chloro-2,5-difluorophenyl)(cyclopropyl)methyl)-4-fluoro-1-((4-(methylsulfonyl)-2-pyridinyl)carbonyl)-D-prolinamide] showed an AC1.4 of 0.6767 µM.
